These results are taken from patent publication US20250230155A1 (Vanderbilt University, priority 2021, published 2025).

The target of the experiment is T1, human mAChR M4 (Homo sapiens, UniProt P08173).
T1 construct: expressed in transfected cells
T1 sequence (P08173 1-479): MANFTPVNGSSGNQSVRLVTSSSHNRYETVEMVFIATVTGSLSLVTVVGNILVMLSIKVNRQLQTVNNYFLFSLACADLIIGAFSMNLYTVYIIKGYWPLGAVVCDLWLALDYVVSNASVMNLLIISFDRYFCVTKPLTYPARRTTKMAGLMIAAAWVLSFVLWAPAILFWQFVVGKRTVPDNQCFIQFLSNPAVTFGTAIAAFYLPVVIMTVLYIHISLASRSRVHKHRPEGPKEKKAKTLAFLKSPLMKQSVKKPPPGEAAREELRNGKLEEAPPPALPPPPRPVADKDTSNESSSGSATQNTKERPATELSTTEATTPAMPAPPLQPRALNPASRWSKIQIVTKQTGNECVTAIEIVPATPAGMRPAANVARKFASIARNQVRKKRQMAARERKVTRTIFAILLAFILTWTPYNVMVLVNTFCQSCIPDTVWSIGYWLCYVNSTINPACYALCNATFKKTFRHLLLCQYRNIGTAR
As to the kind of experiment: mAChR M4 cell-based functional assay (calcium mobilization, CHO-K1 hM4-Gqi5 cells). The note with it: for Emax at 30 µM: CHO-K1, % ACh maximum at 30 μM, human M4; for EC50: positive allosteric modulator activity, increase in the EC20 acetylcholine response, CHO-K1 hM4-Gqi5 cells, read-out: Human M4 EC50. An outline of the steps: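 CHO-K1 cells stably expressing human M4 with chimeric Gqi5, loaded with Fluo-4 AM; compounds given as 11-point 1:3 curves and calcium flux read on FDSS at 1 Hz. Acetylcholine EC20 added at 144 s, EC80 at 230 s; agonist, PAM (EC20 potentiation) and antagonist (EC80 inhibition) EC50/Emax from four-parameter fits.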

For the compound `Cc1cc(F)ncc1-c1cnc2c(c1)CN(c1nccc(C#N)c1C)CC2` [Example 437, 2-(3-(6-fluoro-4-methylpyridin-3-yl)-7,8-dihydro-1,6-naphthyridin-6(5H)-yl)-3-methylisonicotinonitrile], the Emax at 30 µM is 47% and the EC50 was 0.692 µM.

For the compound `Cc1cnc2c(c1)CN(c1ncc(C(=O)Nc3ccncc3)cc1C)CC2` [Example 438, 5-methyl-6-(3-methyl-7,8-dihydro-1,6-naphthyridin-6(5H)-yl)-N-(pyridin-4-yl)nicotinamide], the Emax at 30 µM came to 88% and the EC50 was 0.517 µM.

With `Cc1cnc2c(c1)CN(c1ncc(C(=O)NCc3cncs3)cc1C)CC2` [Example 439, 5-methyl-6-(3-methyl-7,8-dihydro-1,6-naphthyridin-6(5H)-yl)-N-(thiazol-5-ylmethyl)nicotinamide], the Emax at 30 µM amounted to 108% and the concentration for a half-maximal effect (EC50) came out at 0.138 µM.

On to `Cc1cnc2c(c1)CN(c1ncc(C(=O)NCc3ccncc3C)cc1C)CC2` [Example 441, 5-methyl-6-(3-methyl-7,8-dihydro-1,6-naphthyridin-6(5H)-yl)-N-((3-methylpyridin-4-yl)methyl)nicotinamide], for which the Emax at 30 µM was determined as 88% and the EC50 amounted to 0.143 µM.

Take `Cc1cc(C(=O)Nc2ccncc2)cnc1N1CCc2ncc(C(F)(F)F)cc2C1` [Example 442, 5-methyl-N-(pyridin-4-yl)-6-(3-(trifluoromethyl)-7,8-dihydro-1,6-naphthyridin-6(5H)-yl)nicotinamide]: the Emax at 30 µM worked out at 96% and the EC50 was 0.424 µM.

`Cc1cc(C(=O)NCc2cncs2)cnc1N1CCc2ncc(C(F)(F)F)cc2C1` [Example 443, 5-methyl-N-(thiazol-5-ylmethyl)-6-(3-(trifluoromethyl)-7,8-dihydro-1,6-naphthyridin-6(5H)-yl)nicotinamide]: the Emax at 30 µM amounted to 107% and the EC50 came to 0.157 µM.

With `Cc1cc(C(=O)NCc2ccncc2)cnc1N1CCc2ncc(C(F)(F)F)cc2C1` [Example 444, 5-methyl-N-(pyridin-4-ylmethyl)-6-(3-(trifluoromethyl)-7,8-dihydro-1,6-naphthyridin-6(5H)-yl)nicotinamide], the Emax at 30 µM worked out at 100% and the EC50 turned out to be 0.196 µM.

As for `Cc1cnccc1CNC(=O)c1cnc(N2CCc3ncc(C(F)(F)F)cc3C2)c(C)c1` [Example 445, 5-methyl-N-((3-methylpyridin-4-yl)methyl)-6-(3-(trifluoromethyl)-7,8-dihydro-1,6-naphthyridin-6(5H)-yl)nicotinamide], the Emax at 30 µM is 100% and the EC50 was determined as 0.17 µM.

In the case of `Cc1cc(C(=O)NCc2cnc3ccccc3c2)cnc1N1CCc2ncc(C(F)(F)F)cc2C1` [Example 446, 5-methyl-N-(quinolin-3-ylmethyl)-6-(3-(trifluoromethyl)-7,8-dihydro-1,6-naphthyridin-6(5H)-yl)nicotinamide], the Emax at 30 µM is 87% and the EC50 was 1.14 µM.

With `Cc1cc(C(=O)NCc2csc3ccccc23)cnc1N1CCc2ncc(C(F)(F)F)cc2C1` [Example 447, N-(benzo[b]thiophen-3-ylmethyl)-5-methyl-6-(3-(trifluoromethyl)-7,8-dihydro-1,6-naphthyridin-6(5H)-yl)nicotinamide], the Emax at 30 µM came to 97% and the concentration for a half-maximal effect (EC50) turned out to be 1.64 µM.

Take `Cc1cc(C(N)=O)cnc1N1CCc2ncc(C(F)(F)F)cc2C1` [Example 448, 5-methyl-6-(3-(trifluoromethyl)-7,8-dihydro-1,6-naphthyridin-6(5H)-yl)nicotinamide]: the Emax at 30 µM is 102% and the EC50 came to 0.537 µM.

Regarding `Cc1cc(C(=O)NCc2cncs2)cnc1N1CCc2ncc(Nc3ccnn3C)cc2C1` [Example 449, 5-methyl-6-(3-((1-methyl-1H-pyrazol-5-yl)amino)-7,8-dihydro-1,6-naphthyridin-6(5H)-yl)-N-(thiazol-5-ylmethyl)nicotinamide], the Emax at 30 µM came to 105% and the EC50 was 0.084 µM.

Take `Cc1cc(C(=O)Nc2ccncc2)cnc1N1CCc2ncc(-c3cn(C)nc3C)cc2C1` [Example 450, 6-(3-(1,3-dimethyl-1H-pyrazol-4-yl)-7,8-dihydro-1,6-naphthyridin-6(5H)-yl)-5-methyl-N-(pyridin-4-yl)nicotinamide]: the Emax at 30 µM was determined as 71% and the EC50 was found to be 0.215 µM.

Regarding `Cc1cnccc1CNC(=O)c1cnc(N2CCc3ncc(-c4cn(C)nc4C)cc3C2)c(C)c1` [Example 451, 6-(3-(1,3-dimethyl-1/-pyrazol-4-yl)-7,8-dihydro-1,6-naphthyridin-6(5H)-yl)-5-methyl-N-((3-methylpyridin-4-yl)methyl)nicotinamide], the Emax at 30 µM is 92% and the EC50 stood at 0.15 µM.

For `Cc1cc(C(=O)NCc2csc3ccccc23)cnc1N1CCc2ncc(-c3cn(C)nc3C)cc2C1` [Example 452, N-(benzo[b]thiophen-3-ylmethyl)-6-(3-(1,3-dimethyl-1H-pyrazol-4-yl)-7,8-dihydro-1,6-naphthyridin-6(5H)-yl)-5-methylnicotinamide], the Emax at 30 µM came to 89% and the EC50 came out at 1.79 µM.

On to `Cc1cc(C(=O)NCc2nc3ccccc3s2)cnc1N1CCc2ncc(-c3cn(C)nc3C)cc2C1` [Example 453, N-(benzo[d]thiazol-2-ylmethyl)-6-(3-(1,3-dimethyl-1H-pyrazol-4-yl)-7,8-dihydro-1,6-naphthyridin-6(5H)-yl)-5-methylnicotinamide], for which the Emax at 30 µM was 92% and the EC50 turned out to be 0.828 µM.

As to `Cc1cc(C(=O)N(C)Cc2ccncc2)cnc1N1CCc2ncc(-c3cn(C)nc3C)cc2C1` [Example 454, 6-(3-(1,3-dimethyl-1/-pyrazol-4-yl)-7,8-dihydro-1,6-naphthyridin-6(5H)-yl)-N,5-dimethyl-N-(pyridin-4-ylmethyl)nicotinamide], the Emax at 30 µM came out at 60% and the EC50 was found to be 3.91 µM.

As to `Cc1cc(C(=O)NCc2cnc(Cl)s2)cnc1N1CCc2ncc(-c3cn(C)nc3C)cc2C1` [Example 455, N-((2-chlorothiazol-5-yl)methyl)-6-(3-(1,3-dimethyl-1H-pyrazol-4-yl)-7,8-dihydro-1,6-naphthyridin-6(5H)-yl)-5-methylnicotinamide], the Emax at 30 µM was determined as 93% and the EC50 worked out at 0.581 µM.

Turning to `Cc1cc(C(=O)NCc2ccc(C#N)nc2)cnc1N1CCc2ncc(-c3cn(C)nc3C)cc2C1` [Example 456, N-((6-cyanopyridin-3-yl)methyl)-6-(3-(1,3-dimethyl-1H-pyrazol-4-yl)-7,8-dihydro-1,6-naphthyridin-6(5H)-yl)-5-methylnicotinamide], the Emax at 30 µM is 75% and the EC50 came out at 0.888 µM.

As for `Cc1cc(C(=O)NCc2cccnc2)cnc1N1CCc2ncc(-c3cn(C)nc3C)cc2C1` [Example 457, 6-(3-(1,3-dimethyl-1H-pyrazol-4-yl)-7,8-dihydro-1,6-naphthyridin-6(5H)-yl)-5-methyl-N-(pyridin-3-ylmethyl)nicotinamide], the Emax at 30 µM worked out at 85% and the EC50 is 0.576 µM.

Consider `Cc1cc(C(=O)NCc2ccccn2)cnc1N1CCc2ncc(-c3cn(C)nc3C)cc2C1` [Example 458, 6-(3-(1,3-dimethyl-1H-pyrazol-4-yl)-7,8-dihydro-1,6-naphthyridin-6(5H)-yl)-5-methyl-N-(pyridin-2-ylmethyl)nicotinamide], for which the Emax at 30 µM came out at 84% and the EC50 stood at 0.562 µM.
